The source of these data is patent US20240150377A1, “MODULATORS OF CYSTIC FIBROSIS TRANSMEMBRANE CONDUCTANCE REGULATOR” (VERTEX PHARMACEUTICALS INCORPORATED, priority 2020, published 2024).

In the assay the target is T1, CFTR (Homo sapiens, UniProt P13569, DEL508-508).
T1 construct: endogenous in cells; host or cells: primary human bronchial epithelial cells from CF subjects (F508del/MF-HBE), differentiated at air-liquid interface
In words: HBE assay: Ussing chamber assay of CFTR-mediated short-circuit currents. It counts as cell-based. To be noted: for pEC50: read-out: HBE EC50. On the procedure:
1. Ussing Chamber Assay of CFTR-Mediated Short-Circuit Currents
Ussing chamber experiments were performed using human bronchial epithelial (HBE) cells derived from CF subjects heterozygous for F508del and a minimal function CFTR mutation (F508del/MF-HBE) and cultured as previously described (Neuberger T, Burton B, Clark H, Van Goor F Methods Mol Biol 2011:741:39-54). After four days the apical media was removed, and the cells were grown at an air liquid interface for >14 days prior to use.
(§1) To isolate the CFTR-mediated short-circuit (ISC) current, F508del/MF-HBE grown on Costar® Snapwell™ cell culture inserts were mounted in an Ussing chamber and the transepithelial ISC was measured under voltage-clamp recording conditions (Vhold=0 mV) at 37° C. The basolateral solution contained (in mM) 145 NaCl, 0.83 K2HPO4, 3.3 KH2PO4, 1.2 MgCl2, 1.2 CaCl2), 10 Glucose, 10 HEPES (pH adjusted to 7.4 with NaOH) and the apical solution contained (in mM) 145 NaGluconate, 1.2 MgCl2, 1.2 CaCl2), 10 glucose, 10 HEPES (pH adjusted to 7.4 with NaOH) and 30 μM amiloride to block the epithelial sodium channel. Forskolin (20 μM) was added to the apical surface to activate CFTR, followed by apical addition of a CFTR inhibitor cocktail consisting of BPO, GlyH-101, and CFTR inhibitor 172 (each at 20 μM final assay concentration) to specifically isolate CFTR currents. The CFTR-mediated ISC (μA/cm^2) for each condition was determined from the peak forskolin response to the steady-state current following inhibition.
2. Identification of Corrector Compounds
The activity of the CFTR corrector compounds on the CFTR-mediated ISC was determined in Ussing chamber studies as described above. The F508del/MF-HBE cell cultures were either incubated with the corrector compounds at a range of concentrations in combination with 1 μM Ivacaftor or were incubated with the corrector compounds at a single fixed concentration of 10 μM in combination with 1 μM Ivacaftor for 18-24 hours at 37° C. and in the presence of 20% human serum. The concentration of corrector compounds with 1 μM Ivacaftor during the 18-24 hours incubations was kept constant throughout the Ussing chamber measurement of the CFTR-mediated ISC to ensure compounds were present throughout the entire experiment.
Ussing Chamber Assay of CFTR-mediated short-circuit currents
Ussing chamber experiments were performed using human bronchial epithelial (HIBE) cells derived from CF subjects heterozygous for F508del and a minimal function CFTR mutation (F508del/MIF-HIBE) and cultured as previously described (Neuberger T, Burton B, Clark H, Van Goor F Methods Mol Biol 2011:741:39-54). After four days the apical media was removed, and the cells were grown at an air liquid interface for >14 days prior to use.
as §1, with “KH2PO4,” for “K2HPO4,”
Identification of Corrector Compounds

The mark [1] stands for this setting: Table 12, read-out: HBE Max Activity (%).
The mark [2] stands for this setting: HBE assay, read-out: HBE Max activity (%).
Where [3] appears, read: Table 11, read-out: HBE Max Activity (%).
The mark [4] stands for this setting: Table 10, read-out: HBE Max activity (%).
The mark [5] stands for this setting: Table 13, at 10 μM, read-out: HBE Activity at 10 μM (%).
[6] abbreviates: Table 13, read-out: HBE Max Activity (%).
[7] abbreviates: Table 12, at 10 μM, read-out: HBE Activity at 10 μM (%).

pEC50: −log10 of the molar value. Where two headings read alike, the source gives them in different places.

T1 sequence (P13569 with tags, fused parts or gaps DEL508-508): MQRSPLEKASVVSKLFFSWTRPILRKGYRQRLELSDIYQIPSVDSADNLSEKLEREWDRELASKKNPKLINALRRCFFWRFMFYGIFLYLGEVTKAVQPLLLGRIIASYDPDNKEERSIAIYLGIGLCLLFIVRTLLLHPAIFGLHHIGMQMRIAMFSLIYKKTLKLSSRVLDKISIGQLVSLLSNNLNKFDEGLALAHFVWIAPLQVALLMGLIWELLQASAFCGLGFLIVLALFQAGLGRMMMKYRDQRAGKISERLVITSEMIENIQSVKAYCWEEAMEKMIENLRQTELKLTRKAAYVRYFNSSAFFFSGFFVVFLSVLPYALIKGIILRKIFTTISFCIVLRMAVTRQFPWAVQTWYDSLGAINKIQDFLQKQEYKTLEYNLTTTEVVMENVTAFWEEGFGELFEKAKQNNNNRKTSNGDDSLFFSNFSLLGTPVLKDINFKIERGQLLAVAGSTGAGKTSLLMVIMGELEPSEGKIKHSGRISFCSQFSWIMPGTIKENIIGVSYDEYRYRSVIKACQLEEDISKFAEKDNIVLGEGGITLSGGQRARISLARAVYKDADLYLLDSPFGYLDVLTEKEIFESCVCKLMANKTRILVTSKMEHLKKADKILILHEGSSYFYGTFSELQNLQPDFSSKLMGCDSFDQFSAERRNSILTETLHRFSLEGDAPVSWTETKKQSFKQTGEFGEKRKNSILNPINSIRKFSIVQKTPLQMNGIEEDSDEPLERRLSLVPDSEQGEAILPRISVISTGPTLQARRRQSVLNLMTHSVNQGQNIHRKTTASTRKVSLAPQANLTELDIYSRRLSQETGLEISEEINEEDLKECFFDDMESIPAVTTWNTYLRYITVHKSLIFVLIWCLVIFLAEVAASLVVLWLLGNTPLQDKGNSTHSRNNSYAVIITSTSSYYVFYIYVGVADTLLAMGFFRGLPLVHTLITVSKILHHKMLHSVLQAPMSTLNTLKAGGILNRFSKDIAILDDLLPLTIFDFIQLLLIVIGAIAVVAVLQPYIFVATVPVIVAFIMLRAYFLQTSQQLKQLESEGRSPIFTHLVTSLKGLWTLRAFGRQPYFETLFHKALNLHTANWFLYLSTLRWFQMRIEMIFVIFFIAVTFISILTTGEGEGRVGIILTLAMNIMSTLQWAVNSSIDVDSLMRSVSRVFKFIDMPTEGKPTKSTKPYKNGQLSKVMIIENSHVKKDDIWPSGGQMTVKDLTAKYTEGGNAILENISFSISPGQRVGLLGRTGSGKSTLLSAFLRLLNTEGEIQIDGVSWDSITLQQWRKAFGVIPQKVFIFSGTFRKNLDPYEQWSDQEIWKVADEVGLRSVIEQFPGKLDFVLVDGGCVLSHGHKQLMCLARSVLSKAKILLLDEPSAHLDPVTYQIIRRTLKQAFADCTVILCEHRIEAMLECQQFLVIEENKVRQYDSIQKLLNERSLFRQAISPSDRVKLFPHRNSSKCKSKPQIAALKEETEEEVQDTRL

Consider `Cc1cccc(C)c1-c1cc2nc(n1)NS(=O)(=O)c1cccc(c1)C(=O)N(Cc1ncc(N3CC(C)(C)C3)cn1)[C@H](CCC(C)C)CO2` [Compound 1309, (11R)-12-[[5-(3,3-Dimethylazetidin-1-yl)pyrimidin-2-yl]methyl]-6-(2,6-dimethylphenyl)-11-isopentyl-2,2-dioxo-9-oxa-2λ^6-thia-3,5,12,19-tetrazatricyclo[12.3.1.14,8]nonadeca-1(18),4(19),5,7,14,16-hexaen-13-one], for which the activation at 10 µM (HBE assay, 10 μM, read-out: HBE Activity at 10 μM (%)) was over 60%. The pEC50 is the negative decadic logarithm of the EC50, by convention in mol/L. With `CO[C@H]1C[C@@H](Oc2cnc(CN3C(=O)c4cccc(c4)S(=O)(=O)Nc4nc(cc(-c5c(C)cccc5C)n4)OC[C@H]3CC(C)C)nc2)C1` (stereo in doubt) [Compound 1462], the pEC50 (HBE assay) is over 6.00. Regarding `Cc1cccc(C)c1-c1cc2cc(n1)NS(=O)(=O)c1cccc(c1)C(=O)N(Cc1ncc(N3CCC(C)(C)C3)cn1)[C@H](CC(C)(C)C)CO2` [Compound 524], the negative logarithm of the EC50 (pEC50) (Table 12) was over 6.00. Further, the Emax under setting [1] was over 60%. As to `COCCN(c1cncc(CN2C(=O)c3cccc(c3)S(=O)(=O)Nc3nc(cc(-c4c(C)cccc4C)n3)OC[C@H]2CC(C)(C)C)n1)C1CC2(CC2)C1` [Compound 1394], for the setting “HBE assay”, the pEC50 was over 6.00. The Emax under setting [2] was over 60%. As for `Cc1cccc(C)c1-c1cc2nc(n1)NS(=O)(=O)c1cccc(c1)C(=O)N(CC1CCN(CCC(C)(C)C)C1=O)[C@H](CC(C)(C)C)CO2` (stereo partly drawn) [Compound 653], the negative-log EC50 (pEC50) (Table 11) was over 6.00. As for `Cc1cccc(C)c1-c1cc2nc(n1)NS(=O)(=O)c1cccc(c1)C(=O)N(Cc1cccc(C3CCOCC3)n1)[C@H](CC(C)(C)C)CO2` [Compound 728], the pEC50 (Table 11) was over 6.00. Moreover, the Emax under setting [3] was over 60%. As to `Cc1cccc(C)c1-c1cc2nc(n1)NS(=O)(=O)c1cccc(c1)C(=O)N(CC1CCCN(CCC(C)(C)C)C1=O)[C@H](CC(C)(C)C)CO2` (stereo partly drawn) [Compound 654], where the note is “Table 11”, the pEC50 is over 6.00. For the same molecule, the Emax under setting [3] was over 60%. Regarding `CNc1cccc(CN2C(=O)c3cccc(c3)S(=O)(=O)Nc3nc(cc(-c4c(C)cccc4C)n3)OC[C@H]2CC(C)(C)C)n1` [Compound 490], under “Table 10, at 10 μM, read-out: HBE activity at 10 (μM) (%)”, the activation at 10 µM is over 60%. In addition, the pEC50 (Table 10) was over 6.00. Under setting [4], the Emax is over 60%. As to `Cc1cccc(C)c1-c1cc2nc(n1)NS(=O)(=O)c1cccc(c1)C(=O)N(Cc1cccc(N(C)C3CC4(CC4)C3)n1)[C@H](CC(C)(C)C)CO2` [Compound 581], the pEC50 (Table 12) is over 6.00. The Emax under setting [1] was over 60%.

As for `Cc1cccc(C)c1-c1cc2nc(n1)NS(=O)(=O)c1cccc(c1)C(=O)N(Cc1cccc(N3CCC[C@H]3C#N)n1)[C@H](CC(C)(C)C)CO2` [Compound 534], the activation at 10 µM under setting [5] is over 600%.

As for `CC(C)=Cc1nccc(CN2C(=O)c3cccc(c3)S(=O)(=O)Nc3nc(cc(-c4c(C)cccc4C)n3)OC[C@H]2CC(C)(C)C)n1` [Compound 596], the pEC50 (Table 12) was over 6.00. Further, the Emax under setting [1] was over 60%.

As to `Cc1cccc(C)c1-c1cc2nc(n1)NS(=O)(=O)c1cccc(c1)C(=O)N(Cc1ccc(N3CC4(COC4)C3)cn1)[C@H](CC(C)(C)C)CO2` [Compound 1063], the negative-log EC50 (pEC50) (Table 13) was over 6.00. Also, under setting [6], the Emax was over 60%.

On to `Cc1cccc(C)c1-c1cc2nc(n1)NS(=O)(=O)c1cccc(c1)C(=O)N(Cc1cncc(N3CCCC3(C)C)c1)[C@H](CC(C)(C)C)CO2` [Compound 282], for which the activation at 10 µM under setting [7] is over 600%. For the molecule `Cc1cccc(C)c1-c1cc2nc(n1)NS(=O)(=O)c1cccc(c1)C(=O)N(Cc1cccc(N(C(C)C)C(C)C)n1)[C@H](CC(C)(C)C)CO2` [Compound 637], where the note is “Table 11”, the pEC50 is 4.52 to 5.52. Besides, under setting [3], the Emax is over 60%. Take `COCCN1CCC(CN2C(=O)c3cccc(c3)S(=O)(=O)Nc3nc(cc(-c4c(C)cccc4C)n3)OC[C@H]2CC(C)(C)C)C1=O` (stereo partly drawn) [Compound 639]: the negative logarithm of the EC50 (pEC50) (Table 11) is over 6.00. Moreover, the Emax under setting [3] was over 60%. For `Cc1cccc(C)c1-c1cc2nc(n1)NS(=O)(=O)c1cccc(c1)C(=O)N(Cc1ncc(Cl)cc1F)[C@H](CC(C)(C)C)CO2` [Compound 1111], under “Table 13”, the pEC50 is over 6.00. Moreover, the Emax under setting [6] was over 60%. On the same counts, the results for `Cc1cccc(C)c1-c1cc2nc(n1)NS(=O)(=O)c1cccc(c1)C(=O)N(Cc1cccc(C(=O)N3CCC(C)(C)C3)n1)[C@H](CC(C)(C)C)CO2` [Compound 1138] are over 6.00 and over 60%. As for `Cc1cccc(C)c1-c1cc2nc(n1)NS(=O)(=O)c1cccc(c1)C(=O)N(CC(=O)N1C[C@@H](C)[C@@H](C)C1)[C@H](CC(C)(C)C)CO2` [Compound 202], under setting [5], the activation at 10 µM was over 600%. Turning to `Cc1cccc(C)c1-c1cc2nc(n1)NS(=O)(=O)c1cccc(c1)C(=O)N(Cc1cc(N3CCCCC3)ccn1)[C@H](CC(C)(C)C)CO2` [Compound 888], the pEC50 (Table 11) is over 6.00. Besides, the Emax under setting [3] is over 60%. `Cc1cccc(C)c1-c1cc2nc(n1)NS(=O)(=O)c1cccc(c1)C(=O)N(CC1(C(=O)NC3CCCCC3)CC1)[C@H](CC(C)(C)C)CO2` [Compound 1115]: under setting [5], the activation at 10 µM was over 600%.

Turning to `CC(=O)N1CCN(c2cccc(CN3C(=O)c4cccc(c4)S(=O)(=O)Nc4nc(cc(-c5c(C)cccc5C)n4)OC[C@H]3CC(C)(C)C)n2)CC1` [Compound 253], the activation at 10 µM under setting [5] is over 600%. The same measure, in the same setting: the same measure for `Cc1ccc2c(c1)CCN(C(=O)CN1C(=O)c3cccc(c3)S(=O)(=O)Nc3nc(cc(-c4c(C)cccc4C)n3)OC[C@H]1CC(C)(C)C)C2` [Compound 209]: over 600%. On to `COCCN(C)c1cccc(CN2C(=O)c3cccc(c3)S(=O)(=O)Nc3nc(cc(-c4c(C)cccc4C)n3)OC[C@H]2CC(C)(C)C)n1` [Compound 488], for which the pEC50 (Table 10) was over 6.00. In addition, the Emax under setting [4] was over 60%. On to `Cc1cccc(C)c1-c1cc2nc(n1)NS(=O)(=O)c1cccc(c1)C(=O)N(Cc1ncc(N3CC(F)(F)C3)cn1)[C@H](CC(C)(C)C)CO2` [Compound 1444], for which the pEC50 (HBE assay) is over 6.00. Further, the Emax under setting [2] was over 60%.

For the molecule `Cc1cccc(C)c1-c1cc2nc(n1)NS(=O)(=O)c1cccc(c1)C(=O)N([C@@H](C)c1ccc(-c3c(C)n[nH]c3C)cc1)[C@H](CC(C)(C)C)CO2` [Compound 293], under “Table 10”, the pEC50 was over 6.00. For the same molecule, the Emax under setting [4] was over 60%. With `Cc1cccc(C)c1-c1cc2nc(n1)NS(=O)(=O)c1cccc(c1)C(=O)N(CC(=O)N1CCCC1c1ccccc1)[C@H](CC(C)(C)C)CO2` (stereo partly drawn) [Compound 188], the activation at 10 µM under setting [5] is over 600%. Turning to `Cc1cccc(C)c1-c1cc2nc(n1)NS(=O)(=O)c1cccc(c1)C(=O)N(Cc1cncc(N3CCC[C@H]3C)c1)[C@H](CC(C)(C)C)CO2` [Compound 284], under setting [7], the activation at 10 µM is over 600%. For `COCCN(c1cccc(CN2C(=O)c3cccc(n3)S(=O)(=O)Nc3nc(cc(-c4c(C)cccc4C)n3)OC[C@H]2CC(C)(C)C)n1)C(C)C` [Compound 1142], for the setting “Table 13”, the pEC50 is 5.52 to 6.00. Moreover, under setting [6], the Emax is over 60%. In the case of `Cc1cccc(C)c1-c1cc2nc(n1)NS(=O)(=O)c1cccc(c1)C(=O)N(Cc1ncc(N3C[C@H](C)C[C@@H](C)C3)cn1)[C@H](CC(C)(C)C)CO2` [Compound 716], the negative-log EC50 (pEC50) (Table 11) was 4.52 to 5.52. For the same molecule, the Emax under setting [3] was over 60%.
